The text below walks through data of patent US6127337A, “Bivalent thrombin inhibitors” (National Research Council of Canada, priority 1993, dated 2000).

Data set [1] deals with T1, human thrombin (Homo sapiens, UniProt P00734).
T1 construct: Human α-thrombin (3,000 NIH units/mg); purchased Sigma
Description: Inhibition of amidolytic activity of human thrombin (fluorogenic, Tos-Gly-Pro-Arg-AMC), Ki. The class given is biochemical. On the procedure: Materials. The chromogenic and fluorogenic substrates Tosyl-Gly-Pro-Arg-pNAand Tos-Gly-Pro-Arg-AMC were purchased from Boehringer Manheim and Sigma, respectively. […] Initial velocities were recorded at several inhibitor concentrations and kinetic parameters were determined by fitting the data to a general equation describing enzyme inhibition (Segel, 1975). The data were analyzed using the non-linear regression program RNLIN in the IMSL library (IMSL, 1987) on a microVAX™ 3500 computer. […] Fluorogenic assays were conducted using the same conditions and instrument as above operating in the fluorescence mode in the ratio (λex =383 nm, λem =455 nm) Fluorescence intensities were calibrated with 7-amino-4-methyl coumarin solution of known concentration
Determination of Thrombin Inhibitory Dissociation Constants KI
The steady-state velocity was then measured for a few minutes. The compounds of this invention were also pre-incubated with thrombin for 20 min at room temperature before adding the substrate. […] The kinetic data (the steady-state velocity at various concentrations of the substrate and the inhibitors) of the competitive inhibition was analyzed using the methods described by Segel (1975). A non-linear regression program, RNLIN in the IMSL library (IMSL, 1987), LMDER in MINPACK library (More et al., 1980) or Microsoft™ Excell™, was used to estimate the kinetic parameters (Km Vmax and Ki). The biological data are reported on tables I-V.

For data set [2], the target named is T1, human thrombin. Description: Fibrin clotting assay. The class given is biochemical. From the text:
Abbreviations. The following abbreviations have been used in the specification: Abu, γ-aminobutyric acid; Ac, acetyl; Aca, ε-aminocaproic acid; Aca*, 8-aminocapylic acid; Acha, 1-aminocyclohexane-carboxylic acid; Ada, 12-aminododecanoic acid; AMC, 7-amino-4-methylcoumarin; Aua, 11-aminoundecanoic acid; Ava, δ-aminovaleric acid; Bal, β-alanine; Boc, tert-butyloxycarbonyl; BrBzs, 4-bromobenzenesulfonyl; Bzs, benzene sulfonyl; Cha, β-cyclohexylalanine; Fmoc, 9-fluorenylmethoxycarbonyl;FRE, fibrinogen recognition exo site; HPLC, high performance liquid chromatography; MD805, (2R,4R)-4-methyl-1-[N^α -(3-methyl-1,2,3,4-tetrahydro-8-quinolinesulphonyl-glycyl)-L-arginyl]-2-piperidine carboxylic acid; NAPAP, N^α (2-naphtyl-sulphonyl)-D,L-p-amidinophenylalanyl-piperidide; Nas, naphtylsulfonyl; Nle, norleucine; 3-TAPAP, N^α -(4-toluene-sulphonyl)-D,L-p-amidinophenylalanyl-piperidide; OBzl, benzylester; Pip, pipecolic acid; PPACK, D-Phe-Pro-Arg chloromethylketone; tBbs, 4-tert-butylbenzenesulfonyl; Tic, 1,2,3,4-tetrahydroisoquinoline-3-carboxylic acid; TipBs, 2,4,6 triisopropylbenzenesulfonyl; TFA, trifluoroacetic acid; Tos, tosyl; Tris, 2-amino-2-(hydroxymethyl)-1,3-propanediol. All amino acid residues are L-configuration unless otherwise indicated. IC50 is defined as the inhibitor concentration required to double the clotting time relative to the control; means of three determinants ±SEM.
The fibrin clotting assay was performed in 50 mM Tris HCl buffer (pH 7.52 at 37° C.) containing 0.1 M NaCl and 0.1% poly(ethylene glycol) 8000 with 9.0×10^-10 M (0.1 NIH unit/mL) and 0.03% (w/v) of the final concentrations of human thrombin and bovine fibrinogen, respectively, as reported elsewhere (Szewczuk et al., 1992). The clotting time was plotted against the inhibitor concentrations and the IC50 was estimated as the inhibitor concentration required to double the clotting time relative to the control.

Data set [3] deals with carotid injury-induced thrombosis. Description: FeCl3 induced arterial injury model (carotid injury-induced thrombosis). In kind it is in vivo. Conditions: rat; for Dose to double occlusion time: control occlusion time 19 ± 1 min; for Dose to achieve patency at 60 min.: patency defined by no drop in vessel temperature. On the procedure: […]: Rat, male, Sprague-Dawley. Weight: 375-450 g The FeCl3 induced arterial injury model assays were conducted according to Kurz, K. D., Main, […]., Thrombosis research 60; 269-280, 1990 and Schumacher, W. A. et al. J. pharmacology and experimental therapeutics 267; 1237-1242, 1993. Male, Sprague-Dawley (375-450 g) are anesthetized with Urethane (1500 mg/kg IP). Animals are laid on a heating pad which is maintained at 37° C. The carotid artery is approached through a midline cervical incision. Carefully blunt dissection is used to expose and isolate the vessel from the carotid sheath. Using forceps, the artery is lifted to provide clearance to insert two small polyethylene tubing (PE-205) underneath it. The temperature probe (Physitemp MT23/3 )TM is placed between the PE-205 and the artery. The vessel temperature is monitored for 60 minutes after application of FeCl3. Vessel temperature changes are recorded on a thermister (Cole-Palmer Model 08533-41). Injury is induced by application of a small disc (3 mm dia.) of WhatmanTM No.1 filter paper previously dipped in a 35% solution of FeCl3 on the carotid artery above the temperature probe. The site of the experiment is covered with in Aluminum foil in order to protect the FeCl3 from degradation by light. […] Before the start of the experiment, one blood sample is drawn (1 ml) in a tube of 0.105M buffered citrate solution (from the eye's sinus) and the animal is exsanguinated at the end. All the samples are kept on ice and centrifuged as soon as possible at 2000 Rpm for 10 min., 4° C. The plasma is analyzed in duplicate for activated partial thromboplastin time on a haemostasis analyzer (STAGO ST4TM). From a group of four animals, two arteries are stored at -80C for further analysis.

For data set [4] the following is noted: given intravenously or subcutaneously, depending on the species; cited from earlier work.
[5] abbreviates: Table V, concentration to double the clotting time, read-out: IC50 (dtt).
[6] abbreviates: Table I, active site directed inhibitors, human thrombin 6.0×10^-11 M, substrate 1-8×10^-5 M, read-out: Ki.
The mark [7] stands for this setting: Table I, inhibitor concentration required to double the clotting time, means of three ±SEM, read-out: IC50.

“And” between values parts separate entries of the source, which are not always exact repeats. Identical values can stand only once. Like-named read-outs stand apart in the source and are kept apart here.

The term Ki denotes a dissociation constant, usually derived from enzyme kinetics or from competition with a known ligand. In general, IC50 refers to the concentration that gives 50% inhibition. With “2,4,6 triisopropylbenzensulfonyl-Arg (D-Pipecolic acid)-(12-aminododecanoicacid)-4-aminobutyric acid)-Asp-Phe-Glu-Pro-Ile-Pro-Tyr-OH [BCH-2444]”, on human thrombin [1] (Table V, read-out: Ki), the Ki came out at 5.5 nM. Moreover, the IC50 on human thrombin [2] (setting [5]) was found to be 55 nM.
Regarding “4-bromobenzenesulfonyl-Arg (D-Pipecolic acid)-(12-aminododecanoic acid)-4-aminobutyric acid)- Asp-Phe-Glu-Pro-Ile-Pro-Tyr-OH [BCH-2733]”, on human thrombin [1] (Table V, read-out: Ki), the Ki was 0.8 nM. In addition, the Ki on human thrombin [1] (read-out: Ki value) is < 1 nM and 0.8 nM. Further, in data set [3], the “Dose to double occlusion time” value is given as above 2 mg/kg i.v. bolus and the “Dose to achieve patency at 60 min.” value was above 2 mg/kg i.v. bolus. At human thrombin [2] (setting [5]), the IC50 came out at 4.1 nM.
On to “Dansyl-Arg-(D-Pipecolic acid)-Abu-NH2 [Peptide P431]”, for which, on human thrombin [1] (setting [6]), the Ki amounted to 980 ± 130 nM. Besides, at human thrombin [2] (setting [7]), the IC50 was found to be 2580 ± 680 nM.
In the same order, the values of “Dansyl-Arg-(D-Pipecolic acid)-NH2 [Peptide P429]” are 158 ± 57 nM and 430 ± 130 nM.
Turning to Dansyl-Arg-(D-Tic)-NH2 [Peptide P396], the Ki at human thrombin [1] (setting [6]) came to 390 ± 20 nM. Further, the IC50 at human thrombin [2] (setting [7]) came to 820 ± 150 nM.
In the same order, the values of “Dansyl-Arg-(L-Pip)-Abu-NH2 [Peptide P430]” are 11600 ± 3300 nM and 39100 ± 7200 nM.
Turning to Dansyl-Arg-(L-Pip)-NH2 [Peptide P428], the Ki at human thrombin [1] (setting [6]) was determined as 19100 ± 1300 nM. In addition, the IC50 at human thrombin [2] (setting [7]) was 37900 ± 1900 nM.
As a reminder, the half-life is how long it takes for the measured level to halve. Take Hirudin: the half-life in data set [4] is 30 to 60 min.
Regarding “tert-butylbezenesulfonyl-Arg (D-Pipecolic acid)-(12-aminododecanoic acid)-4-aminobutyric acid)-Asp-Phe-Glu-Pro-Ile-Pro-Tyr-OH [BCH-2443]”, the Ki at human thrombin [1] (Table V, read-out: Ki) came to 1 nM. Further, in data set [3], the “Dose to double occlusion time” value is given as above 4 mg/kg i.v. bolus and the “Dose to achieve patency at 60 min.” value is reported as above 4 mg/kg i.v. bolus. Also, the IC50 on human thrombin [2] (setting [5]) came to 12 nM.
As for “tert-butylbezenesulfonyl-Arg (D-Pipecolic acid)-(12-aminododecanoic acid)-4-aminobutyric acid)-Asp-Phe-Glu-Pro-Ile-Pro-Tyr-OH [BCH-2736]”, the Ki at human thrombin [1] (Table V, read-out: Ki) came out at 270 nM. Besides, in data set [3], the “Dose to double occlusion time” value is 4 mg/kg i.v. bolus and the “Dose to achieve patency at 60 min.” value is recorded as above 4 mg/kg i.v. bolus. Also, the IC50 on human thrombin [2] (setting [5]) is 1100 nM.
In the case of “β-naphthyl sulfonyl-arginyl D-pipecolic acid-(12-aminododecanoic acid)-4-aminobutyric acid)-Asp-Tyr-Glu-Pro-Ile-Pro-Glu-Glu-Ala-(L-β-cyclohexylalanine)-(D- Glu)-OH [Peptide P551]”, the Ki on human thrombin [1] (Table IV, results from assay no. 1, read-out: Ki) was 0.0033 ± 0.00016 nM. The Ki at human thrombin [1] (Table IV, results from assay no. 2, read-out: Ki) was 0.0042 ± 0.0002 nM. In data set [3], the “Dose to double occlusion time” value is listed as 0.5-1 mg/kg i.v. bolus and the “Dose to achieve patency at 60 min.” value is reported as 1-2 mg/kg i.v. bolus.
